Where two headings read alike, the source gives them in different places.
Tested on: HBV
Assay: HBV inhibition assay in HepAD38 cells (extracellular HBV DNA by direct qPCR)
Assay type: cell-based, HBV genotype D subtype ayw
Settings: 96 hours, read-out: HBV inh EC50
From the text: HepAD38 cell line (Ladner et al., Antimicrob Agents Chemother, 1997, 41, 1715-20) was used for HBV inhibition assays. HepAD38 is a subclone, derived from hepatoblastoma cell line HepG2 (ATCC® Number: HB-8065), that expresses HBV genome (genotype D subtype ayw) under the transcriptional control of a tetracycline-responsive promoter in a TET-OFF system: addition of doxycycline, an antibiotic belonging to the class of tetracycline, suppresses HBV replication, while its removal switches on the process allowing HBV viral particles release in the cell supernatant. HepAD38 cell line is maintained in DMEM/F12, supplemented with 10% of fetal bovine serum, 1% of glutamine, 1% of penicillin/streptomycin, 0.4 mg/ml G418 and 0.3 ug/ml tetracycline. For the HBV inhibition assay, doxycycline-free medium is used in order to allow virion production.
HBV inhibition activity in vitro was performed in 96 multiwell plates. During the initial (primary) screening, compounds were first tested in triplicates at concentrations of 0.02 μM, 0.1 μM, 0.5 μM and 1 μM. For selected compounds, an 8-point dose-response curve was obtained using 1:2 serial dilutions (starting from 0.01 μM, 0.1 μM, 0.4 μM or 5 μM, depending on the degree of inhibition observed during the primary screening). From the dose-response curves, half maximal effective concentration (EC50) could be calculated (see also below).
In more detail, compounds—typically dissolved in DMSO stock solutions—were diluted to 2× the final desired concentration in 100 μl of the above medium (without doxycycline) and plated in three replicates in the 96-well plates.
Simultaneously, HepAD38 cells—extensively pre-washed in doxycycline-free medium in order to induce HBV production—were suspended at 2*10^4 cells in 100 μl of doxycycline-free medium and added to each well of the plate, to yield a final assay volume of 200 μl.
DMSO, used for stock solutions and compounds dilutions, was always present in the assays at a final concentration of 0.5%.
Plates were then incubated 96 hours at 37° C. and then subjected to cell viability assays and extracellular HBV quantification, in order to evaluate both the cytotoxic potential and the antiviral activity of compounds.
Cytotoxicity was assessed by a commercial fluorescence assay that measures the metabolic activity of cells, directly related to cell viability (Cell Titer Blue, Promega). For each compound, cytotoxicity was evaluated at the same concentration employed to evaluate its anti-HBV activity. Anti-HBV activity was evaluated by quantification of extracellular HBV DNA with direct qPCR. In particular, supernatant was collected and centrifuged for cell debris clarification, viral DNA was extracted from virions by addition of lysis buffer (1 mM 1,4-dithiothreitol, 0.2% sodium dodecyl sulphate) and incubated at 95° C. for 10 min. Samples were then diluted 1:40 and real time PCR amplification was performed with SYBR green assay (Power SYBR™ Green PCR Master Mix-Thermo Fisher Scientific) and specific HBV primer (HBV-DF:5′-[…]-3′ (SEQ ID No. 1), HBV-DR:5′-[…]-3′ (SEQ ID No. 2)).
Antiviral activity data for each compound are reported as EC50 value (see Table 1 legend). Excel and Graphpad Prism programs are typically used for data elaboration and EC50 calculation.

| Compound | EC50 (Hepatitis B virus) [nM] | EC50 [nM] |
| --- | --- | --- |
| Cc1cc(NC(=O)c2c3c(cn2C)S(=O)(=O)NC2CN(C(=O)C(=O)N[C@H](C)C(F)(F)F)CCC2CO3)ccc1F (mixture of isomers) [Example E60, Cis-N-(4-fluoro-3-methylphenyl)-2-methyl-7-(2-oxo-2-(((R)-1,1,1-trifluoropropan-2-yl)amino)acetyl)-5,5a,6,7,8,9,9a,10-octahydro-2H-pyrido[3,4-f]pyrrolo[3,4-b][1,4,5]oxathiazocine-1-carboxamide 4,4-dioxide] | < 500 | – |
| Cc1cc(NC(=O)c2c3c(cn2C)S(=O)(=O)NC2CN(C(=O)C(=O)N[C@H](C)C(F)(F)F)CC2CO3)ccc1F (stereo in doubt) [Example E30, trans-N-(4-fluoro-3-methylphenyl)-7-methyl-2-(2-oxo-2-(((R)-1,1,1-trifluoropropan-2-yl)amino)acetyl)-2,3,3a,4,10,10a-hexahydro-1H,7H-dipyrrolo[3,4-b:3′,4′-f][1,4,5]oxathiazocine-8-carboxamide 5,5-dioxide] | < 500 | – |
| Cc1cc(NC(=O)c2c3c(cn2C)S(=O)(=O)NC2CN(C(=O)C(=O)N[C@H](C)C(F)(F)F)CCC2CO3)ccc1F (mixture of isomers) [Example E66, Trans-N-(4-fluoro-3-methylphenyl)-2-methyl-7-(2-oxo-2-(((R)-1,1,1-trifluoropropan-2-yl)amino)acetyl)-5,5a,6,7,8,9,9a,10-octahydro-2H-pyrido[3,4-f]pyrrolo[3,4-b][1,4,5]oxathiazocine-1-carboxamide 4,4-dioxide] | – | < 500 |
| Cc1cc(NC(=O)c2c3c(cn2C)S(=O)(=O)NC2CCN(C(=O)C(=O)NCC(F)(F)F)CC2CO3)ccc1F (racemic) [Example E57, Trans-N-(4-fluoro-3-methylphenyl)-2-methyl-8-(2-oxo-2-((2,2,2-trifluoroethyl)amino)acetyl)-5,5a,6,7,8,9,9a,10-octahydro-2H-pyrido[4,3-f]pyrrolo[3,4-b][1,4,5]oxathiazocine-1-carboxamide 4,4-dioxide] | < 500 | – |
| Cc1cc(NC(=O)c2c3c(cn2C)S(=O)(=O)NC2CCN(C(=O)C(=O)N[C@@H](C)C(F)(F)F)CC2CO3)ccc1F (mixture of isomers) [Example E56, Trans-N-(4-fluoro-3-methylphenyl)-2-methyl-8-(2-oxo-2-(((S)-1,1,1-trifluoropropan-2-yl)amino)acetyl)-5,5a,6,7,8,9,9a,10-octahydro-2H-pyrido[4,3-f]pyrrolo[3,4-b][1,4,5]oxathiazocine-1-carboxamide 4,4-dioxide] | < 500 | – |
| Cc1cc(NC(=O)c2c3c(cn2C)S(=O)(=O)NC2CN(C(=O)C(=O)N[C@@H](C)C(F)(F)F)CCC2CO3)ccc1F (mixture of isomers) [Example E65, Cis-N-(4-fluoro-3-methylphenyl)-2-methyl-7-(2-oxo-2-(((S)-1,1,1-trifluoropropan-2-yl)amino)acetyl)-5,5a,6,7,8,9,9a,10-octahydro-2H-pyrido[3,4-f]pyrrolo[3,4-b][1,4,5]oxathiazocine-1-carboxamide 4,4-dioxide] | < 500 | – |
| Cc1cc(NC(=O)c2c3c(c(C)n2C)S(=O)(=O)N[C@H]2CN(C(=O)C(=O)N[C@H](C)C(F)(F)F)C[C@H]2CO3)ccc1F [Example E53, (3aR,10aR)—N-(4-fluoro-3-methylphenyl)-6,7-dimethyl-2-(2-oxo-2-(((R)-1,1,1-trifluoropropan-2-yl)amino)acetyl)-2,3,3a,4,10,10a-hexahydro-1H,7H-dipyrrolo[3,4-b:3′,4′-f][1,4,5]oxathiazocine-8-carboxamide 5,5-dioxide] | < 500 | – |
| Cc1cc(NC(=O)c2c3c(cn2C)S(=O)(=O)NC2CN(C(=O)C(=O)N[C@@H](C)C(F)(F)F)CCC2CO3)ccc1F (mixture of isomers) [Example E71, Trans-N-(4-fluoro-3-methylphenyl)-2-methyl-7-(2-oxo-2-(((S)-1,1,1-trifluoropropan-2-yl)amino)acetyl)-5,5a,6,7,8,9,9a,10-octahydro-2H-pyrido[3,4-f]pyrrolo[3,4-b][1,4,5]oxathiazocine-1-carboxamide 4,4-dioxide] | – | < 500 |
| Cc1cc(NC(=O)c2c3c(cn2C)S(=O)(=O)N[C@H]2CN(C(=O)C(=O)N[C@H](C)C(F)(F)F)C[C@@]2(C)CO3)ccc1F [Example E74, (3aR,10aR)—N-(4-fluoro-3-methylphenyl)-7,10a-dimethyl-2-(2-oxo-2-(((R)-1,1,1-trifluoropropan-2-yl)amino)acetyl)-2,3,3a,4,10,10a-hexahydro-1H,7H-dipyrrolo[3,4-b:3′,4′-f][1,4,5]oxathiazocine-8-carboxamide 5,5-dioxide] | < 500 | – |
| Cc1cc(NC(=O)c2c3c(cn2C)S(=O)(=O)NC2CN(C(=O)C(=O)NC4CC4)CCC2CO3)ccc1F (racemic) [Example E67, Trans-7-(2-(cyclopropylamino)-2-oxoacetyl)-N-(4-fluoro-3-methylphenyl)-2-methyl-5,5a,6,7,8,9,9a,10-octahydro-2H-pyrido[3,4-f]pyrrolo[3,4-b][1,4,5]oxathiazocine-1-carboxamide 4,4-dioxide] | – | < 500 |
| Cc1cc(NC(=O)c2c3c(cn2C)S(=O)(=O)NC2CCN(C(=O)C(=O)N[C@H](C)C(F)(F)F)CC2CO3)ccc1F (mixture of isomers) [Example E59, Trans-N-(4-fluoro-3-methylphenyl)-2-methyl-8-(2-oxo-2-(((R)-1,1,1-trifluoropropan-2-yl)amino)acetyl)-5,5a,6,7,8,9,9a,10-octahydro-2H-pyrido[4,3-f]pyrrolo[3,4-b][1,4,5]oxathiazocine-1-carboxamide 4,4-dioxide] | < 500 | – |
| Cc1cc(NC(=O)c2c3c(cn2C)S(=O)(=O)NC2CN(C(=O)C(=O)N4CC(F)(F)C4)CCC2CO3)ccc1F (racemic) [Example E70, Trans-7-(2-(3,3-difluoroazetidin-1-yl)-2-oxoacetyl)-N-(4-fluoro-3-methylphenyl)-2-methyl-5,5a,6,7,8,9,9a,10-octahydro-2H-pyrido[3,4-f]pyrrolo[3,4-b][1,4,5]oxathiazocine-1-carboxamide 4,4-dioxide] | – | < 500 |
| Cc1cc(NC(=O)c2c3c(cn2C)S(=O)(=O)NC2CCN(C(=O)C(=O)NC(C)(C)C(F)(F)F)CC2CO3)ccc1F (racemic) [Example E58, Trans-N-(4-fluoro-3-methylphenyl)-2-methyl-8-(2-oxo-2-((1,1,1-trifluoro-2-methylpropan-2-yl)amino)acetyl)-5,5a,6,7,8,9,9a,10-octahydro-2H-pyrido[4,3-f]pyrrolo[3,4-b][1,4,5]oxathiazocine-1-carboxamide 4,4-dioxide] | < 500 | – |
| Cc1cc(NC(=O)c2c3c(cn2C)S(=O)(=O)NC2CN(C(=O)C(=O)N[C@H](C)C(F)(F)F)CC2(C)CO3)ccc1F (stereo in doubt) [Example E26, Cis-N-(4-fluoro-3-methylphenyl)-7,10a-dimethyl-2-(2-oxo-2-(((R)-1,1,1-trifluoropropan-2-yl)amino)acetyl)-2,3,3a,4,10,10a-hexahydro-1H,7H-dipyrrolo[3,4-b:3′,4′-f][1,4,5]oxathiazocine-8-carboxamide 5,5-dioxide] | < 500 | – |
| Cc1cc(NC(=O)c2c3c(cn2C)S(=O)(=O)N[C@H]2CN(C(=O)C(=O)N[C@H](C)C(F)(F)F)C[C@@]2(O)CO3)ccc1F [Example E75, (3aS,10aS)—N-(4-fluoro-3-methylphenyl)-10a-hydroxy-7-methyl-2-(2-oxo-2-(((R)-1,1,1-trifluoropropan-2-yl)amino)acetyl)-2,3,3a,4,10,10a-hexahydro-1H,7H-dipyrrolo[3,4-b:3′,4′-f][1,4,5]oxathiazocine-8-carboxamide 5,5-dioxide] | < 500 | – |
| Cc1cc(NC(=O)c2c3c(c(Br)n2C)S(=O)(=O)N[C@H]2CN(C(=O)C(=O)N[C@H](C)C(F)(F)F)C[C@H]2CO3)ccc1F [Example E52, (3aR,10aR)-6-bromo-N-(4-fluoro-3-methylphenyl)-7-methyl-2-(2-oxo-2-(((R)-1,1,1-trifluoropropan-2-yl)amino)acetyl)-2,3,3a,4,10,10a-hexahydro-1H,7H-dipyrrolo[3,4-b:3′,4′-f][1,4,5]oxathiazocine-8-carboxamide 5,5-dioxide] | < 500 | – |

Reference: US12465590B2, “Oxalamido-substituted tricyclic inhibitors of hepatitis b virus” (priority 2019, dated 2025)
